Structures are written as SMILES.

One experiment deals with T1, hMAO-A (Homo sapiens, UniProt P21397).
T1 construct: purchased Sigma-Aldrich; host or cells: insect cells (microsomes)
T1 sequence (P21397 1-527): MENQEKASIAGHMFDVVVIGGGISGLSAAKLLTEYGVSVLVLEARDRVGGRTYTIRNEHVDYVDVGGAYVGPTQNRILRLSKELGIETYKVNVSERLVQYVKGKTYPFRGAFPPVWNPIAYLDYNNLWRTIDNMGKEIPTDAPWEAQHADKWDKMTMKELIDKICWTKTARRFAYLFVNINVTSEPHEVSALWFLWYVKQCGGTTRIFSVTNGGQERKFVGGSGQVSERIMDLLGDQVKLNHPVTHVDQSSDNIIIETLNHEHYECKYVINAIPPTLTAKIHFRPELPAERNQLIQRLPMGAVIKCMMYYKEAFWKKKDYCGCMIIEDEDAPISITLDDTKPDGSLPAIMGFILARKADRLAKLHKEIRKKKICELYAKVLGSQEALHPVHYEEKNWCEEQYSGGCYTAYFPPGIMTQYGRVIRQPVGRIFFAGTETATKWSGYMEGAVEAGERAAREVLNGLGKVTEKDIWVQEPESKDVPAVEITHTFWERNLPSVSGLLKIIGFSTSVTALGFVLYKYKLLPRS
Put plainly: hMAO-A inhibition, Amplex Red fluorometric assay with kynuramine substrate. In kind it is biochemical. The conditions noted are these: for fold difference of hMAO-A inhibition, (R)-enantiomer versus (S)-enantiomer: (R)- compared with (S)-enantiomer of the same compound. The method, then: (§1) The synthesized compounds P1–P18 were evaluated as hMAO inhibitors using the recombinant hMAOs as enzyme sources and kynuramine as substrate. A fluorometric method based on the Amplex® Red reagent (λex = 560 nm; λem = 590 nm) was used to measure hMAO activity. In this horseradish peroxidase-linked assay, Amplex® Red reacts with hydrogen peroxide that is produced by the MAO catalytic cycle to yield a fluorescent product, resorufin [28]. By thus recording the MAO-catalyzed formation of hydrogen peroxide in the presence of different concentrations of a test inhibitor, sigmoidal plots of enzyme activity versus the logarithm of inhibitor concentration were constructed from which IC50 values were estimated (GraphPad Prism 5). All IC50 values were measured in triplicate and are expressed as the mean ± standard deviation (SD). The inhibitory activities of compounds P1–P18 are summarized in Table 1 along with selectivity index (SI) values which are the ratio of IC50(hMAO-A)/IC50(hMAO-B). SI < 1 indicates selectivity for MAO-A, whereas SI > 1 indicates selectivity for the MAO-B isoform.
(§2) Microsomes from insect cells expressing recombinant hMAO-A or hMAO-B (5 mg protein/mL) served as enzyme sources, and were pre-aliquoted and stored at −70 °C. All enzymatic reactions were carried out to a final volume of 200 µL in black 96-well microtiter plates (Corning). Potassium phosphate buffer (100 mM, pH 7.4, made isotonic with KCl) served as reaction solvent. The reactions contained kynuramine (50 µM), various concentrations of the test inhibitor (0.003–100 μM), horseradish peroxidase (1 unit/mL) and Amplex® Red (200 µM). Stock solutions of the test inhibitors were prepared in DMSO and added to the reactions to yield a final concentration of 4% (v/v) DMSO. The reactions were initiated with the addition of hMAO-A (0.0075 mg protein/mL) or hMAO-B (0.015 mg protein/mL), and incubated at 37 °C for 20 min in a convection oven. At endpoint, the reactions were terminated with the addition of 10 μL pargyline (20 mM) and 10 μL (R)-deprenyl (5 mM) for hMAO-A and hMAO-B, respectively. The concentrations of resorufin in the reactions were determined by fluorescence spectrophotometry (λex = 560 nm, λem = 590 nm). Resorufin was quantitated with a linear calibration curve, which was constructed from standard solutions containing hydrogen peroxide (0.05–1.6 µM). Each standard was prepared to a final volume of 200 μL in potassium phosphate buffer and also contained horseradish peroxidase (1 unit/mL), Amplex® Red (200 µM), 4% DMSO as co-solvent, 10 μL pargyline (20 mM) for hMAO-A and 10 μL (R)-deprenyl (5 mM) for hMAO-B. The IC50 values were determined by constructing sigmoidal curves of MAO catalytic activity versus the logarithm of inhibitor concentration. For this purpose, the one site competition model incorporated into the Prism 5 software package (GraphPad, San Diego, CA, USA) was used. All experiments were carried out in triplicate and the IC50 values are expressed as mean ± standard deviation (SD).

In a further experiment the target is T2, hMAO-B (Homo sapiens, UniProt P27338).
T2 construct: purchased Sigma-Aldrich; host or cells: insect cells (microsomes)
T2 sequence (P27338 1-520): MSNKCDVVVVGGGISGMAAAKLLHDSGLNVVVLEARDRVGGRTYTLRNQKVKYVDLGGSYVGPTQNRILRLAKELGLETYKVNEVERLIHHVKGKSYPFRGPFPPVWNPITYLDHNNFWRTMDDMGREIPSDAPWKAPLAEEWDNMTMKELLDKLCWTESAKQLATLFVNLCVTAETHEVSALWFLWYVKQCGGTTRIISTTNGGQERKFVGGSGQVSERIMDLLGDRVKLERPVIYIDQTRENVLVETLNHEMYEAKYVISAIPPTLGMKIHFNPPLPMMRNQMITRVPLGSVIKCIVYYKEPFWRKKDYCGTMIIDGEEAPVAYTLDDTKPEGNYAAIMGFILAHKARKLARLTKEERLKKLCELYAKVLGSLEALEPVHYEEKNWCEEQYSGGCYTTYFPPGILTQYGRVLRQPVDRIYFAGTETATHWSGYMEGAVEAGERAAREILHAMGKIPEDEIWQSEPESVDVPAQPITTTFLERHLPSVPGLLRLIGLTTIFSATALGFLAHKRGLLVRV
Put plainly: hMAO-B inhibition, Amplex Red fluorometric assay with kynuramine substrate. In kind it is biochemical. As to conditions: for SI (selectivity index for the hMAO-B isoform): ratio IC50(hMAO-A)/IC50(hMAO-B), SI > 1 = MAO-B selective; for IC50: recombinant hMAO-B, kynuramine 50 µM, mean ± SD of triplicate, max tested 100 µM. The method, then:
as §1, §2

Setting [1] is: recombinant hMAO-A, kynuramine 50 µM, mean ± SD of triplicate, max tested 100 µM.

Regarding `COc1ccc(C2=NN(C(N)=S)[C@@H](c3ccccc3)C2)cc1` [(R)-P1], the IC50 at hMAO-A (setting [1]) was 50.6 ± 2.67 µM. In addition, at hMAO-B, the “SI (selectivity index for the hMAO-B isoform)” value is listed as under 0.51 and the IC50 is over 100 µM.

As for `CCOc1ccc(C2=NN(C(N)=S)[C@@H](c3ccccc3)C2)cc1` [(R)-P2], the 50% inhibitory concentration (IC50) at hMAO-A (setting [1]) is 33.9 ± 1.29 µM. Further, at hMAO-B, the “SI (selectivity index for the hMAO-B isoform)” value is under 0.34 and the IC50 is over 100 µM.

For `CCCOc1ccc(C2=NN(C(N)=S)[C@@H](c3ccccc3)C2)cc1` [(R)-P3], the results for the IC50 at hMAO-A (setting [1]) and at hMAO-B were 8 ± 0.83 µM and 2.77 ± 0.39 µM, respectively. Besides, the “SI (selectivity index for the hMAO-B isoform)” value at hMAO-B stood at 2.89.

On to `CCCCOc1ccc(C2=NN(C(N)=S)[C@@H](c3ccccc3)C2)cc1` [(R)-P4], for which the “fold difference of hMAO-A inhibition, (R)-enantiomer versus (S)-enantiomer” value at hMAO-A worked out at 10 fold. Also, the 50% inhibitory concentration (IC50) at hMAO-A (setting [1]) came to 3.63 ± 0.5 µM. Also, on hMAO-B, the “SI (selectivity index for the hMAO-B isoform)” value is on record as 9.55 and the IC50 came to 0.38 ± 0.06 µM.

Consider `CCCCCOc1ccc(C2=NN(C(N)=S)[C@@H](c3ccccc3)C2)cc1` [(R)-P5], for which, on hMAO-A, the “fold difference of hMAO-A inhibition, (R)-enantiomer versus (S)-enantiomer” value came out at 18 fold. Also, at hMAO-A (setting [1]), the 50% inhibitory concentration (IC50) was 3.03 ± 0.6 µM. The “fold higher hMAO-B inhibitory activity, (R)-enantiomer versus (S)-enantiomer” value on hMAO-B ((R)- compared with (S)-enantiomer of the same compound) is given as 6 fold. For the same compound, at hMAO-B, the “SI (selectivity index for the hMAO-B isoform)” value came out at 6.89 and the IC50 turned out to be 0.44 ± 0.028 µM.

With `COc1ccc(C2=NN(C(N)=S)[C@H](c3ccccc3)C2)cc1` [(S)-P1], the concentration for half-maximal inhibition (IC50) on hMAO-A (setting [1]) was determined as 46.6 ± 2.62 µM. In addition, on hMAO-B, the “SI (selectivity index for the hMAO-B isoform)” value is listed as under 0.47 and the half-maximal inhibitory concentration (IC50) is over 100 µM.

As to `CCOc1ccc(C2=NN(C(N)=S)[C@H](c3ccccc3)C2)cc1` [(S)-P2], the figures for the IC50 on hMAO-A (setting [1]) and on hMAO-B were 32.3 ± 4.46 µM and over 100 µM, respectively. In addition, the “SI (selectivity index for the hMAO-B isoform)” value at hMAO-B is reported as under 0.32.

On to `CCCOc1ccc(C2=NN(C(N)=S)[C@H](c3ccccc3)C2)cc1` [(S)-P3], for which the IC50 on hMAO-A (setting [1]) was 9.59 ± 0.83 µM. Further, on hMAO-B, the “SI (selectivity index for the hMAO-B isoform)” value was determined as 0.23 and the half-inhibitory concentration (IC50) stood at 42.5 ± 2.61 µM.

`CCCCOc1ccc(C2=NN(C(N)=S)[C@H](c3ccccc3)C2)cc1` [(S)-P4]: the IC50 on hMAO-A (setting [1]) was found to be 39.2 ± 2.15 µM. Also, on hMAO-B, the “SI (selectivity index for the hMAO-B isoform)” value came to 7.78 and the IC50 came to 5.03 ± 0.88 µM.

As to `CCCCCOc1ccc(C2=NN(C(N)=S)[C@H](c3ccccc3)C2)cc1` [(S)-P5], the IC50 at hMAO-A (setting [1]) amounted to 55.2 ± 2.72 µM. At hMAO-B, the “SI (selectivity index for the hMAO-B isoform)” value is recorded as 19.77 and the IC50 came to 2.79 ± 0.87 µM.

Turning to `CC(C)=CCCC(C)=CCOc1ccc(C2=NN(C(N)=S)C(c3ccccc3)C2)cc1` (stereo not shown) [Compound P6, 3-(4-((3,7-dimethylocta-2,6-dien-1-yl)oxy)phenyl)-5-phenyl-4,5-dihydro-1H-pyrazole-1-carbothioamide], at hMAO-A (setting [1]), the IC50 was over 100 µM and the “IC50 hMAO-A” value is “ineffective”. Besides, at hMAO-B, the “SI (selectivity index for the hMAO-B isoform)” value was over 1.85 and the IC50 worked out at 54.1 ± 7.54 µM.

Take `CC(=O)N1N=C(c2ccc(OCC=C(C)C)cc2)CC1c1ccccc1` (stereo not shown) [Compound P8]: the 50% inhibitory concentration (IC50) on hMAO-A (setting [1]) was over 100 µM. In addition, on hMAO-B, the “SI (selectivity index for the hMAO-B isoform)” value is over 43.67 and the IC50 was 2.29 ± 0.42 µM.

Consider `CC(=O)N1N=C(c2ccc(OCC=C(C)C)cc2)CC1c1ccc(C)cc1` (stereo not shown) [Compound P11, 1-(3-(4-((3-methylbut-2-en-1-yl)oxy)phenyl)-5-(p-tolyl)-4,5-dihydro-1H-pyrazol-1-yl)ethan-1-one], for which the half-maximal inhibitory concentration (IC50) at hMAO-A (setting [1]) is over 100 µM. For the same compound, at hMAO-B, the “SI (selectivity index for the hMAO-B isoform)” value is over 8.19 and the 50% inhibitory concentration (IC50) was 12.2 ± 0.71 µM.

Turning to `CC(=O)N1N=C(c2ccc(OCC=C(C)C)cc2)CC1c1ccc(Cl)cc1` (stereo not shown) [Compound P15, 1-(5-(4-chlorophenyl)-3-(4-((3-methylbut-2-en-1-yl)oxy)phenyl)-4,5-dihydro-1H-pyrazol-1-yl)ethan-1-one], the IC50 at hMAO-A (setting [1]) worked out at 12.1 ± 0.14 µM; on hMAO-B, 11 ± 3.56 µM. In addition, the “SI (selectivity index for the hMAO-B isoform)” value on hMAO-B came out at 1.11.

Values taken from paper PMC6384781, “Design, Synthesis, Docking Studies and Monoamine Oxidase Inhibition of a Small Library of 1-acetyl- and 1-thiocarbamoyl-3,5-diphenyl-4,5-dihydro-(1H)-pyrazoles” (Molecules, 2019).
